Patent publication US20080039321A1, “Plant Growth Regulation” (priority 2004, published 2008)

Tested on: wheat (Triticum aestivum, variety "TRISO")
Assay: Root growth assay, seed treatment, wheat
Assay type: in vivo
Conditions: Root Growth of 100 is set as the standard, 16 (±2) days post treatment
Source text: Plant roots are a highly proliferative tissue that allows an easy accessible, cheap and short term screening method for plant growth regulators. The results obtained can easily be transferred to the overall effects on a plant of plant growth regulators identified by such a system. By using this root assay one is enabled to determine the effect of a seed treatment to root growth and/or germination and/or changes in habitat of germinated plants in order to identify the possible use as a yield enhancer. Two seeds of wheat (Triticum aestivum, variety “TRISO”) or 1 seed of maize (Zea mays, variety “LORENZO”) per hole in a plastic tray which contains an architecture of 8×13 holes were placed on compost soil covered with sand. These seeds were treated with 100 μl/hole, which creates an application volume of approx. 1200 l/ha, of a compound solution at active ingredient rates equivalent to 100, 10 and 1 g a.i./ha of each compound using an robotic application system (Lizzy Spray Robotics). Six replicates in a row of each compound and concentration were done. The outer rim of the above defined plastic tray was untreated to avoid false negative effects and the middle row (No. 7) was used as untreated control. The treated seeds were allowed to dry for approx. 4 hours and subsequently covered with sand and watered. The trays were stored in climate chambers with 14 hours lighting at a temperature of 24° C. (±2) at daytime and 16° C. (±2) at night and relative humidity (rH) of 60% and daily watered. Assessments were done 16 (±2) days post treatment by counting the germinated plants and assessing the phytotoxicity symptoms and percentage. In addition, the roots were washed out and the shoots were cut directly above the seed and the wet roots were placed on dry paper towels for approximately 30 minutes and weighted afterwards. This procedure provides a similar grade of moisture to the roots so that a comparison of the weights is possible. […]

In the case of `Nc1nc(OCC23CC4CC(CC(C4)C2)C3)c2nc[nH]c2n1` [Compound 1.1, O6-Adamantylmethyl-9H-purin-2-ylamine], the “Root Growth” value (1 g a.i./ha) is reported as 84, the “Root Growth” value (10 g a.i./ha) is reported as 76 and the “Root Growth” value (100 g a.i./ha) is reported as 141.
